For 13 compounds, TGI and GI50 results are on record in PubChem BioAssay (NCI).

The structures appear in SMILES notation.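 Each compound was tested at five concentrations against cells in 96-well plates for 48 hours. GI50 = concentration required for 50% inhibition of growth. TGI marks complete inhibition of growth.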

As usually defined, the TGI is the concentration giving total growth inhibition. Lower therefore signals more potent growth arrest. As usually defined, the GI50 is the concentration giving 50% growth inhibition.

Test systems include HOP-92 NSCLC; K-562 leukemia; LOX IMVI melanoma; MCF7 breast; MDA-MB-231 breast; MDA-MB-435; OVCAR-8 ovarian; SK-OV-3 ovarian; SNB-75 CNS; A549 NSCLC; MALME-3M melanoma.
Assay in all cases: DTP human tumour cell line panel, 48 h

On to `Oc1ccc(-c2nc3cc(C(F)(F)F)ccc3n2CC2CCCN3CCCCC23)cc1` (centres undefined), for which the concentration for total growth inhibition (TGI) with HOP-92 NSCLC turned out to be 28.5 µM; in the test with K-562 leukemia, 30.3 µM; with LOX IMVI melanoma, 28.8 µM; in the test with MCF7 breast, 25.2 µM; in the test with MDA-MB-231 breast, 27.6 µM; in the test on MDA-MB-435 it was 26.3 µM. Moreover, the total growth inhibition concentration (TGI) stood at 29.5 µM in the test on OVCAR-8 ovarian, 27.6 µM with SK-OV-3 ovarian and 32.4 µM in the test on SNB-75 CNS.
For `O=c1nc2n(cc1/C=C\Br)C1CC(O)C(CO2)O1` (centres undefined), the TGI with A549 NSCLC, in the test on K-562 leukemia, in the test with LOX IMVI melanoma, in the test on MALME-3M melanoma, in the test on MCF7 breast and in the test with MDA-MB-231 breast was > 100 µM in each case. For the same compound, the total growth inhibition concentration (TGI) in the test on MDA-MB-435, in the test with OVCAR-8 ovarian, with SK-OV-3 ovarian and in the test on SNB-75 CNS was > 100 µM each time.
In the case of `O=c1c2cc(Br)ccc2oc2nc3n(c(=O)c12)CCCS3`, the TGI in the test with A549 NSCLC, in the test with HOP-92 NSCLC, in the test with K-562 leukemia, in the test with LOX IMVI melanoma, in the test with MALME-3M melanoma and with MCF7 breast was > 100 µM throughout. For the same compound, the TGI in the test with MDA-MB-231 breast, with MDA-MB-435, in the test on OVCAR-8 ovarian and in the test with SNB-75 CNS was > 100 µM each time.
On to `N#CCCC(CC#N)N1CCN(CCO)CC1` (centres undefined), for which the TGI with A549 NSCLC, in the test on HOP-92 NSCLC, with K-562 leukemia, in the test with MALME-3M melanoma, with MCF7 breast and with MDA-MB-231 breast was > 100 µM throughout. Besides, the TGI in the test on MDA-MB-435, with OVCAR-8 ovarian, with SK-OV-3 ovarian and in the test on SNB-75 CNS was > 100 µM each time.
`O=[N+]([O-])c1ccc(Cl)cc1C1ON=C(c2ccccc2)N1C12CC3CC(CC(C3)C1)C2` (centres undefined): the TGI in the test with A549 NSCLC, in the test with HOP-92 NSCLC, with K-562 leukemia, in the test on LOX IMVI melanoma, with MALME-3M melanoma and with MCF7 breast was > 100 µM in each case. In addition, the TGI with MDA-MB-231 breast, in the test on MDA-MB-435, in the test on SK-OV-3 ovarian and in the test with SNB-75 CNS was > 100 µM in each case.
Regarding `Cc1nc2c(nc1C)-c1c(c3c(n1Cc1ccccc1)C(=O)CCC3)C(=O)C2=O`, the TGI with A549 NSCLC was > 100 µM; with HOP-92 NSCLC, 90.3 µM; with K-562 leukemia it was > 100 µM; with MALME-3M melanoma it was 14.2 µM; with MCF7 breast it was 5.39 µM; in the test with MDA-MB-231 breast, > 100 µM. The total growth inhibition concentration (TGI) was 5.98 µM with MDA-MB-435, > 100 µM with OVCAR-8 ovarian, > 100 µM in the test on SK-OV-3 ovarian and 6.56 µM in the test on SNB-75 CNS.
Take `CN1CCN(CC(=O)Nc2ccc3ncnc(Nc4ccc(Oc5cccc(C(F)(F)F)c5)c(Cl)c4)c3c2)CC1`: the GI50 with HOP-92 NSCLC was 1.09 µM; with MALME-3M melanoma, 1.56 µM; in the test with MCF7 breast, 1.48 µM; with MDA-MB-231 breast it was 1.78 µM; in the test on MDA-MB-435 it was 1.58 µM; in the test with SNB-75 CNS, 1.35 µM. In addition, the total growth inhibition concentration (TGI) in the test with HOP-92 NSCLC was determined as 2.46 µM; in the test with MALME-3M melanoma, 3.05 µM; in the test on MCF7 breast it was 3 µM; in the test with MDA-MB-231 breast, 3.3 µM; in the test with MDA-MB-435, 2.97 µM; in the test with SNB-75 CNS, 2.67 µM.
For `CCCCCCCCCCCCCCCCCCNc1ccn(C2OC(COP(=O)(O)O)C(O)C2O)c(=O)n1` (centres undefined), the concentration for total growth inhibition (TGI) with A549 NSCLC, in the test with HOP-92 NSCLC, in the test on K-562 leukemia, in the test on LOX IMVI melanoma, in the test on MCF7 breast and with MDA-MB-231 breast was > 100 µM throughout. In addition, the concentration for total growth inhibition (TGI) in the test on MDA-MB-435, in the test on OVCAR-8 ovarian, with SK-OV-3 ovarian and in the test on SNB-75 CNS was > 100 µM in each case.
`Oc1ccc2c(c1)OCC(O)(c1ccccc1O)C2` (centres undefined): the concentration for total growth inhibition (TGI) in the test on HOP-92 NSCLC, in the test on K-562 leukemia, in the test with LOX IMVI melanoma, with MCF7 breast, in the test with MDA-MB-231 breast and in the test on MDA-MB-435 was > 100 µM each time. Further, the TGI in the test with OVCAR-8 ovarian, with SK-OV-3 ovarian and with SNB-75 CNS was > 100 µM in each case.
For `CCOC(=O)c1c(C)n(Cc2ccccc2)c2c1cc(O)c1[nH]c3c(c12)CCCC3`, the TGI came out at 19.6 µM in the test on A549 NSCLC; 2.11 µM with HOP-92 NSCLC; 10.9 µM in the test on K-562 leukemia; 16.8 µM in the test with LOX IMVI melanoma; 15.6 µM with MALME-3M melanoma; 13.3 µM in the test on MCF7 breast. Also, the TGI in the test on MDA-MB-231 breast was determined as 19 µM; with MDA-MB-435, 24.4 µM; with OVCAR-8 ovarian, 20.6 µM; with SK-OV-3 ovarian, 24.5 µM.
As to `C#CC(O)/C=C/CCCCCCC#CC/C=C\CC#CCCCCCC/C=C/C(O)C#C` (centres undefined), the concentration for total growth inhibition (TGI) with A549 NSCLC was found to be 10.2 µM; with HOP-92 NSCLC, 5.57 µM; in the test on K-562 leukemia, 9.67 µM; with LOX IMVI melanoma, 0.0282 µM; with MCF7 breast it was 25.9 µM; in the test with MDA-MB-231 breast, 8.9 µM. For the same compound, the total growth inhibition concentration (TGI) was 5.4 µM with MDA-MB-435, 13.1 µM with OVCAR-8 ovarian, 32.1 µM in the test on SK-OV-3 ovarian and 20.9 µM in the test with SNB-75 CNS.
As for `COc1ccc(CNc2nc(NCc3ccc(OC)cc3)nc(Nc3ccccc3)n2)cc1`, the total growth inhibition concentration (TGI) in the test on A549 NSCLC, with HOP-92 NSCLC, in the test on K-562 leukemia, in the test on MALME-3M melanoma, in the test on MCF7 breast and in the test with MDA-MB-231 breast was > 100 µM each time. In addition, the TGI was 5.7 µM in the test on MDA-MB-435, > 100 µM in the test with OVCAR-8 ovarian, > 100 µM in the test with SK-OV-3 ovarian and > 100 µM in the test with SNB-75 CNS.
As for `COc1cc(/C=C2\N=C(c3ccccc3)N(C3Nc4cc5c(cc4S3)NC(N3C(=O)/C(=C/c4cc(OC)c(OC)c(OC)c4)N=C3c3ccccc3)S5)C2=O)cc(OC)c1OC` (centres undefined), the total growth inhibition concentration (TGI) with A549 NSCLC, in the test with HOP-92 NSCLC, with K-562 leukemia, with LOX IMVI melanoma, in the test with MCF7 breast and in the test with MDA-MB-231 breast was > 100 µM throughout. Also, the TGI with MDA-MB-435, with OVCAR-8 ovarian and in the test with SNB-75 CNS was > 100 µM throughout.
